The target in the assay is Protein disulfide-isomerase (Homo sapiens) (UniProt P07237). The assay can be described thus: PDI inhibitors, insulin turbidity readout, dose response, biochemical, absorbance, cherry-picked samples, set 2 (AID 624274). Particulars: PDI insulin reduction turbidity, absorbance 650 nm.
Chain of Protein disulfide-isomerase (Homo sapiens) (P07237 whole entry, looked up): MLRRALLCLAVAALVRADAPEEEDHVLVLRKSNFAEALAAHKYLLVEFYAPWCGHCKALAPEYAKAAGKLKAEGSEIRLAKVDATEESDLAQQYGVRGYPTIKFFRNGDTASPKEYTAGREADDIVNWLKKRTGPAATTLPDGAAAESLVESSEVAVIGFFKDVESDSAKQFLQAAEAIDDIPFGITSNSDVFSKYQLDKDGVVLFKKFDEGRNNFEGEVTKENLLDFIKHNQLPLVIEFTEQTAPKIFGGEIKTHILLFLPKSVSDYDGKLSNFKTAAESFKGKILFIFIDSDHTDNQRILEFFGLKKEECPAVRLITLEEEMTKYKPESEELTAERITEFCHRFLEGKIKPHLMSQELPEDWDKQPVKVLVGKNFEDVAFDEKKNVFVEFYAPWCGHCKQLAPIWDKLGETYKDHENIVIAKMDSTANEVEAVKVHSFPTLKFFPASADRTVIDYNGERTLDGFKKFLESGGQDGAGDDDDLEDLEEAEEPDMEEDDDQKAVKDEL
As for `Oc1ccc(/C=C/c2nc(-c3ccccc3O)n(-c3ccccc3)n2)cc1`, the AC50 is 18.8 µM. The same measure for `C[C@H]1CN([C@@H](C)CO)C(=O)c2cccc(NS(C)(=O)=O)c2O[C@@H]1CN(C)Cc1ccc(Oc2ccccc2)cc1`: 19.5 µM. Regarding `O=c1c(O[C@@H]2O[C@H](CO)[C@@H](O)[C@H](O)[C@H]2O)c(-c2ccc(O)cc2)oc2cc(O)cc(O)c12`, the AC50 was 19 µM.

Consider `C[C@@H]1O[C@@H](O[C@H]2[C@H](O)[C@@H](O)[C@H](Oc3c(-c4ccc(O)c(O)c4)oc4cc(O)cc(O)c4c3=O)O[C@@H]2CO)[C@H](O)[C@H](O)[C@H]1O`, for which the AC50 was 4.28 µM. For `C[C@@H]1O[C@@H](O[C@@H]2C(=O)c3c(O)cc(O)cc3O[C@H]2c2ccc(O)c(O)c2)[C@H](O)[C@H](O)[C@H]1O` the value was 10.2 µM. The same measure for `COc1cccc(NS(=O)(=O)c2ccc3c(c2)C2C=CCC2C(c2ccc(C(=O)O)cc2)N3)c1` (stereo unspecified): 15.8 µM; for `CC(C)Sc1nnc([C@H](Cc2c[nH]c3ccccc23)NC(=O)OC(C)(C)C)o1`: 19.5 µM.

In the case of `CC(Cc1ccccc1Sc1ccccc1O)N(C)C` (stereo unspecified), the AC50 is 15.9 µM.

Regarding `O=C1C[C@@H](c2ccc(O[C@@H]3O[C@H](CO)[C@@H](O)[C@H](O)[C@H]3O)cc2)Oc2cc(O)ccc21`, the AC50 was 15.6 µM. Turning to `COc1cc2cc(C(=O)N3CC(COS(C)(=O)=O)c4ccc(O)cc43)[nH]c2c(OC)c1OC` (stereo unspecified), the AC50 is 18 µM. For `CCOc1cc(N2CCOCC2)c(OCC)cc1NC(=O)COC(=O)[C@H](Cc1c[nH]c2ccccc12)NC(C)=O` the value was 19.5 µM.

For the origin of these results see PubChem BioAssay AID624274 (Broad Institute, 2012).
